Assay results published in patent US12502379B2, “Ponesimod for avoiding worsening of fatigue-related symptoms in multiple sclerosis patients” (Vanda Pharmaceuticals Inc., priority 2019, dated 2025).

What was measured:
[1] = Reasons for premature treatment discontinuation; format: in vivo
Experimental: A total of 1468 subjects were screened. Of those, 1133 subjects were randomized (567 to ponesimod 20 mg and 566 to teriflunomide 14 mg) across 162 sites in 28 countries, and 1131 subjects received at least one dose of study drug. The disposition of subjects is summarized in Table 1 and a summary of reasons (primary reason) for treatment discontinuation are shown in Table 2. Overall treatment and study discontinuation were balanced across both treatment arms. A total of 6.5% and 2.5% of the subjects discontinued due to AEs or tolerability related reasons in ponesimod 20 mg and teriflunomide 14 mg, respectively, while 1.9% and 4.3% discontinued due to efficacy related reasons. There were 2 deaths reported during the study—both on teriflunomide 14 mg.

[2] = system: adult subjects with relapsing MS; assay: FSIQ-RMS weekly symptoms score, change from baseline to Week 108; format: in vivo, human
Source text: In some embodiments, the patient-reported outcome questionnaire is the Fatigue Symptoms and Impact Questionnaire—Relapsing Multiple Sclerosis (FSIQ-RMS) (available from Mapi Research Trust). The FSIQ-RMS is an MS specific 20-item PRO measure that comprises 2 domains: one measuring MS symptoms and one measuring MS-related impacts. See Hudgens S, et al., Development and Validation of the FSIQ-RMS: A New Patient-Reported Questionnaire to Assess Symptoms and Impacts of Fatigue in Relapsing Multiple Sclerosis. Value Health. 2019 April; 22 (4): 453-466. doi: 10.1016/j.jval.2018.11.007. Epub 2019 Feb. 21. PubMed PMID: 30975397. With 7 symptom items and 13 impact items (in 3 impacts subdomains: physical, cognitive and emotional, and coping), the FSIQ-RMS is a comprehensive, valid, and reliable measure of fatigue-related symptoms and impacts in RMS patients. FIG. 2B depicts a conceptual framework for the FSIQ-RMS.
(§1) In some embodiments, the patient-reported outcome questionnaire is the symptom domain of the FSIQ-RMS. The FSIQ-RMS symptom domain (FSIQ-RMS-S) consists of seven items assessing fatigue-related symptoms with a recall period of 24 hours measured on an 11-point numeric rating scale; the standardized symptom domain score ranges from 0 to 100 with a higher score indicating greater fatigue. This domain (i.e., section 1 of the questionnaire) is completed on 7 consecutive days.
The patient-reported outcome questionnaire used for the below Examples is the Fatigue Symptoms and Impact Questionnaire-Relapsing Multiple Sclerosis (FSIQ-RMS). The FSIQ-RMS is an MS specific 20-item PRO measure that comprises 2 domains: one measuring MS symptoms (7 items) and one measuring MS-related impacts (13 items). The 7 symptom items and 13 impact items (in 3 impacts subdomains: physical, cognitive and emotional, and coping) are presented below.
For the MS symptoms domain, the FSIQ-RMS asks about a patient's fatigue-related symptoms of relapsing MS over the past 24 hours while doing routine daily activities (e.g., housework, yard work, shopping, working, etc.) for Items 1-6 or while at rest (e.g., reading a book, watching TV, etc.) for Item 7. Patients are asked to select a response on a scale of Oto 10 that best describes their experience and are asked to not skip any questions, with no answers being right or wrong.
Secondary efficacy variables and testing strategy: Four secondary efficacy endpoints were analyzed as per the statistical testing strategy outlined in FIG. 1. • Change from baseline to Week 108 in fatigue-related symptoms as measured by the symptoms domain of the FSIQ-RMS patient-reported outcome [Fatigue] • Cumulative number of combined unique active lesions from baseline to Week 108 on brain MRI [CUALs] • Time to first 12-week confirmed disability accumulation (CDA) from baseline to EOS on Expanded Disability Status Scale (EDSS) [12-week CDA] • Time to first 24-week CDA from baseline to EOS on EDSS [24-week CDA]
as §1, with “The” for “In some embodiments, the patient-reported outcome questionnaire is the symptom domain of the FSIQ-RMS. The”
FSIQ-RMS was completed during the pre-randomization period, at Visits 6, 7, 10, and 12 (Weeks 12, 24, 60, 84), 14 (EOT), and at unscheduled visits due to relapses (R1, R2, etc.) or other unscheduled visits (U1, U2, etc.) as described below. If applicable, FSIQ-RMS was performed at the corresponding visits in the PTOP.
The completion of the FSIQ-RMS during the pre-randomization period was done as follows: At Visit 1 (Screening), subjects who appear eligible based on the assessments made during this visit (but prior to the results from the laboratory assessments are received) were provided with the electronic device containing the FSIQ-RMS. […]

[3] = system: Patients (18-55 years) with RMS; assay: No evidence of disease activity (NEDA-3) status; format: in vivo, human; settings: PON 20 mg vs TER 14 mg; week 108
Experimental: (§2) In this study, prespecified MRI-based endpoints and no evidence of disease activity (NEDA) status is evaluated.
(§3) Patients (18-55 years) with RMS (expanded disability status scale scores: 0-5.5) were randomized (1:1) to receive ponesimod (PON) 20 mg or teriflunomide (TER) 14 mg for 108 weeks. MRI assessments were: volume of T2 lesions; mean number of new gadolinium-enhancing (Gd+) T1 lesions and new/enlarging T2 lesions; and absence of active MRI lesions at week 108. NEDA-3 status (absence of confirmed relapse, Gd+T1 lesions and new/enlarging T2 lesions on annual MRIs, and 12-week confirmed disability accumulation) was evaluated from baseline to week 108.

[4] = Treatment-emergent adverse events, Safety Set
Experimental: A prospective, multicenter, randomized, double-blind, active controlled, parallel-group, phase III, superiority study was conducted.
The Safety Set (SAF) included all randomized subjects who received at least one dose of study treatment. Subjects were analyzed based on actual treatment taken, not randomized treatment.

[5] = system: Patients (18-55 years) with RMS; assay: Pre-specified MRI endpoints (Example 2); format: in vivo, human; settings: PON 20 mg vs TER 14 mg; baseline to week 108
Experimental: as §2, §3

[6] = Safety Set, ponesimod 20 mg N = 565, teriflunomide 14 mg N = 566
[7] = ponesimod 20 mg, teriflunomide 14 mg
[8] = patients with no prior DMT treatment within about two years, FSIQ-RMS weekly symptoms score
[9] = patients without Gd+T1 lesions at baseline, FSIQ-RMS weekly symptoms score
[10] = Day 1 (ponesimod dose 2 mg per up-titration), Safety Set, N = 565 / 566

## CCC/N=C1\S/C(=C\c2ccc(OC[C@H](O)CO)c(Cl)c2)C(=O)N1c1ccccc1C [Ponesimod, (R)-5-[3-chloro-4-(2,3-dihydroxy-propoxy)-benz[Z]ylidene]-2-([Z]-propylimino)-3-o-tolyl-thiazolidin-4-one]
[1]; [6]
  Premature treatment discontinuation: Death: 0 n
[1]; [7]
  Subjects who discontinued due to AEs or tolerability related reasons: 6.5%
[2]; MMRM, Full Analysis Set, increase = worsening, ponesimod 20 mg, teriflunomide 14 mg
  Change from baseline to Week 108 in FSIQ-RMS weekly symptoms score (mean): −0.01
[2]; patients with baseline fatigue below the median, FSIQ-RMS weekly symptoms score
  Change From Baseline to Week 108: Stable or Improved: ~65%
[2]; [8]
  Change From Baseline to Week 108: Stable (−6.3 < x < +6.3): 44.0%
  Change From Baseline to Week 108: Stable or Improved: about 75%
[2]; [9]
  Change From Baseline to Week 108: Improved (<−6.3): 30.0%
  Change From Baseline to Week 108: Stable or Improved: about 68%
[3]
  NEDA-3, odds ratio (OR): 1.70
[4]; [10]
  AESI effect on heart rate and rhythm (including hypotension) on Day 1: Subjects with at least one AE: 2.1%
  AESI heart rate and rhythm on Day 1, PT: Electrocardiogram QT prolonged: 0 n
  AESI heart rate and rhythm on Day 1, PT: Presyncope: 0 n
[4]; [6]
  Subject with at least one AE (treatment-emergent): 88.8%
  Subject with at least one AE leading to study drug discontinuation: 8.7%
  Subject with at least one Fatal AE: 0 n
  Subject with at least one Serious AE: 8.7%
  TEAEs leading to premature discontinuation of study drug, SOC: Reproductive system and breast disorders: 0 n
  TEAEs leading to premature discontinuation of study drug, SOC: Surgical and medical procedures: 0 n
  Treatment-emergent AESI: Hepatobiliary disorders/Liver enzyme abnormality: 25.7%
  Treatment-emergent AESI: Hypertension: 10.1%
  Treatment-emergent AESI: Pulmonary events: 8.0%
[4]; [7]
  TEAE: ALT increased: 19.5%
  TEAE: headache: 11.5%
  TEAE: nasopharyngitis: 19.3%
  TEAE: upper respiratory tract infection: 10.6%
[5]
  New Gd+T1 lesions per scan, rate ratio [RR]: 0.42
  New/enlarging T2 lesions per year, RR: 0.44
